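Five concentrations, 48 hours, 96-well plates. TGI denotes the concentration required for complete inhibition of growth.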

Test systems include HCT-116 colon; HCT-15 colon; MALME-3M melanoma; PC-3 prostate; SF-295 CNS; LOX IMVI melanoma; HT29 colon; SR leukemia; M14 melanoma; SK-MEL-5 melanoma.
Assay in all cases: NCI anticancer screen, dose series, 48 h

In the case of `C[C@]12C(=O)C=CCC1=CC[C@@H]1[C@@H]2[C@H]2CC3(O)C(=O)O[C@@]4(C)[C@H]5C[C@@]6(C)[C@@H]7[C@@]2(O)[C@]1(OC[C@H]6C(=O)O5)O[C@]734` (stereo not given in full), the TGI in the assay on HCT-116 colon is > 100 µM; with HCT-15 colon, > 100 µM; in the assay with MALME-3M melanoma, > 100 µM; in the assay with PC-3 prostate, > 100 µM; in the assay with SF-295 CNS it was > 100 µM; in the assay with LOX IMVI melanoma it was 75.5 µM. The TGI was > 100 µM with HT29 colon, 75.2 µM in the assay with SR leukemia, > 100 µM with M14 melanoma and > 100 µM with SK-MEL-5 melanoma.

Regarding `Cc1ccc(/C(O)=C/c2nc3cccnc3[nH]c2=O)cc1`, the TGI in the assay on HCT-116 colon, in the assay with HCT-15 colon, in the assay with MALME-3M melanoma, in the assay with PC-3 prostate, in the assay on SF-295 CNS and in the assay on LOX IMVI melanoma was > 100 µM throughout. The TGI in the assay with HT29 colon, with SR leukemia, in the assay with M14 melanoma and in the assay with SK-MEL-5 melanoma was > 100 µM throughout.

Consider `CC(=O)OC12CC(C(F)(F)F)(C(F)(F)F)OC1(OC(C)=O)CC(C(F)(F)F)(C(F)(F)F)O2` (stereo not given), for which the TGI in the assay with HCT-116 colon was 29.7 µM; in the assay with HCT-15 colon it was > 100 µM; in the assay on MALME-3M melanoma it was > 100 µM; in the assay on PC-3 prostate, > 100 µM; with SF-295 CNS, > 100 µM; with LOX IMVI melanoma, 34.9 µM. For the same compound, the TGI was > 100 µM in the assay with HT29 colon, 82.1 µM in the assay on SR leukemia, > 100 µM in the assay on M14 melanoma and 5.81 µM with SK-MEL-5 melanoma.

In the case of `COc1ccc(OC)c(NC2=NCCO2)c1`, the TGI with HCT-116 colon, in the assay on HCT-15 colon, in the assay with MALME-3M melanoma, in the assay with PC-3 prostate, with SF-295 CNS and with LOX IMVI melanoma was > 100 µM throughout. Moreover, the TGI in the assay on HT29 colon, in the assay on SR leukemia, with M14 melanoma and in the assay on SK-MEL-5 melanoma was > 100 µM in each case.

With `O=C(NNS(=O)(=O)c1ccc(Br)cc1)c1ccc(Cl)cc1NC(=O)C12CC3CC(CC(C3)C1)C2`, the TGI in the assay on HCT-116 colon was > 100 µM; in the assay with HCT-15 colon, 45.4 µM; in the assay on MALME-3M melanoma it was 35.3 µM; with PC-3 prostate, 38.6 µM; in the assay with SF-295 CNS, 29.3 µM; in the assay on LOX IMVI melanoma, 28.4 µM. For the same compound, the TGI in the assay with HT29 colon is 27.2 µM; in the assay with SR leukemia, 35.5 µM; in the assay with M14 melanoma, 33.6 µM; with SK-MEL-5 melanoma it was 23.2 µM.

For `COc1cc(NS(C)(=O)=O)ccc1NCc1cnc2ccc3[nH]cccc3c12`, the TGI in the assay on HCT-116 colon was > 70 µM; in the assay on HCT-15 colon, 58.4 µM; with MALME-3M melanoma, 43.4 µM; in the assay with PC-3 prostate, 42.3 µM; with SF-295 CNS, 53.4 µM; in the assay on LOX IMVI melanoma it was 63.4 µM. Moreover, the TGI in the assay with HT29 colon was determined as 73.9 µM; in the assay with SR leukemia, 28 µM; in the assay with M14 melanoma, 31.4 µM; in the assay with SK-MEL-5 melanoma it was 25.2 µM.

As to `Cc1nc2ccccc2c(=O)n1NC(=O)c1ccccc1[N+](=O)[O-]`, the TGI in the assay with HCT-116 colon, with HCT-15 colon, with MALME-3M melanoma, in the assay with PC-3 prostate, in the assay on SF-295 CNS and with LOX IMVI melanoma was > 100 µM each time. The TGI with HT29 colon, in the assay with SR leukemia, with M14 melanoma and with SK-MEL-5 melanoma was > 100 µM in each case.

Regarding `C/C(=N/NC(=S)N(C)C)c1ccccc1O`, the TGI in the assay on HCT-116 colon is 34.8 µM; in the assay on HCT-15 colon, > 100 µM; with MALME-3M melanoma it was > 76.1 µM; in the assay on PC-3 prostate it was > 100 µM; in the assay on SF-295 CNS, > 100 µM; in the assay with LOX IMVI melanoma, > 75.1 µM. Moreover, the TGI in the assay on HT29 colon was > 100 µM; in the assay with SR leukemia it was > 39.5 µM; in the assay with M14 melanoma it was 23.4 µM; in the assay with SK-MEL-5 melanoma, > 49.8 µM.

For `C=CCOC(=O)c1c(C)n([O-])c2cc(Cl)c(Cl)cc2[n+]1=O`, the TGI with HCT-116 colon is 39 µM; in the assay with HCT-15 colon, 31.7 µM; in the assay on MALME-3M melanoma, 70.9 µM; with PC-3 prostate, > 100 µM; with SF-295 CNS it was 86.9 µM; in the assay on LOX IMVI melanoma, 32.9 µM. Besides, the TGI stood at 36.8 µM in the assay with HT29 colon, 13.1 µM in the assay on SR leukemia, 38.8 µM in the assay with M14 melanoma and 36.8 µM with SK-MEL-5 melanoma.

As to `CCOC(=O)C1(C#N)C2(C#N)C(N)=NC(ON=C(C)C)(ON=C(C)C)C12C#N` (stereo not given), the TGI with HCT-116 colon, with HCT-15 colon, in the assay with MALME-3M melanoma, in the assay with PC-3 prostate, in the assay on SF-295 CNS and with LOX IMVI melanoma was > 100 µM each time. Moreover, the TGI in the assay with HT29 colon, with SR leukemia, in the assay with M14 melanoma and with SK-MEL-5 melanoma was > 100 µM in each case.

On to `CN(C)C(=S)/N=c1\ssc(=S)n1Cc1cccs1`, for which the TGI in the assay on HCT-116 colon is > 69.6 µM; in the assay on HCT-15 colon, > 100 µM; with MALME-3M melanoma, 74.7 µM; with PC-3 prostate, > 100 µM; in the assay with SF-295 CNS it was 21.8 µM; with LOX IMVI melanoma, > 100 µM. In addition, the TGI in the assay on HT29 colon is > 100 µM; in the assay on SR leukemia, > 100 µM; in the assay with M14 melanoma it was > 100 µM; with SK-MEL-5 melanoma it was > 16.1 µM.

Turning to `COc1cc(S(=O)(=O)Nc2ccc(-c3csc(N4C(=O)C(Cl)C4c4cccc(Oc5ccccc5)c4)n3)cc2)ccc1Cl` (stereo not given), the TGI in the assay on HCT-116 colon was > 100 µM; with HCT-15 colon, > 100 µM; in the assay on MALME-3M melanoma, > 100 µM; in the assay with PC-3 prostate it was 30.8 µM; in the assay with SF-295 CNS it was > 100 µM; in the assay with LOX IMVI melanoma, 4.89 µM. Also, the TGI with HT29 colon was > 100 µM; with SR leukemia it was > 100 µM; with M14 melanoma, 52.4 µM; in the assay on SK-MEL-5 melanoma, > 100 µM.

For the compound `N#C/C(=C/n1c(=S)[nH]c2ccccc21)C(N)=O`, the TGI in the assay on HCT-116 colon, in the assay on HCT-15 colon, in the assay with MALME-3M melanoma, with PC-3 prostate, in the assay with SF-295 CNS and in the assay on LOX IMVI melanoma was > 100 µM each time. Also, the TGI with HT29 colon, in the assay on SR leukemia, in the assay on M14 melanoma and in the assay with SK-MEL-5 melanoma was > 100 µM each time.

With `COC1=CC(=O)c2c(cc(COP(N)(=O)N(CCCl)CCCl)n2C)C1=O` (stereo not given), the TGI is 0.707 µM in the assay with HCT-116 colon; 3.54 µM in the assay on HCT-15 colon; 3.15 µM in the assay on MALME-3M melanoma; 10.1 µM in the assay with PC-3 prostate; 2.82 µM in the assay on SF-295 CNS; 1.73 µM in the assay with LOX IMVI melanoma. Also, the TGI was determined as 4.33 µM in the assay with HT29 colon, 1.31 µM in the assay with SR leukemia, 2.74 µM in the assay with M14 melanoma and 2.82 µM in the assay on SK-MEL-5 melanoma.

With `Cc1ccc(S(=O)(=O)NC(=O)NCCc2ccc(O)c(O)c2)cc1`, the TGI in the assay on HCT-116 colon, in the assay with HCT-15 colon, in the assay with MALME-3M melanoma, with PC-3 prostate, in the assay with SF-295 CNS and with LOX IMVI melanoma was > 100 µM in each case. The TGI with HT29 colon, in the assay with SR leukemia, with M14 melanoma and in the assay with SK-MEL-5 melanoma was > 100 µM in each case.

Consider `O=C(/C=C/c1ccc(OCc2ccccc2)cc1)NCc1ccc(C(=O)NCc2ccccc2)cc1`, for which the TGI in the assay on HCT-116 colon, with HCT-15 colon, in the assay with MALME-3M melanoma, with PC-3 prostate, with SF-295 CNS and with LOX IMVI melanoma was > 100 µM in each case. The TGI in the assay with HT29 colon, with SR leukemia, in the assay on M14 melanoma and in the assay on SK-MEL-5 melanoma was > 100 µM in each case.

`CNC(=O)c1cc2nc3ccccc3c(=O)n2c2ccccc12`: the TGI in the assay on HCT-116 colon, in the assay with HCT-15 colon, with MALME-3M melanoma, in the assay on PC-3 prostate, in the assay with SF-295 CNS and in the assay with LOX IMVI melanoma was > 10 µM in each case. Also, the TGI in the assay with HT29 colon, in the assay with SR leukemia, in the assay on M14 melanoma and in the assay with SK-MEL-5 melanoma was > 10 µM each time.

Regarding `COc1cc(OCc2nc3cc(C(F)(F)F)ccc3nc2-c2ccccc2)cc(OC)c1OC`, the TGI in the assay with HCT-116 colon, with HCT-15 colon, in the assay on MALME-3M melanoma, in the assay with PC-3 prostate, in the assay on SF-295 CNS and in the assay on LOX IMVI melanoma was > 100 µM each time. Besides, the TGI in the assay with HT29 colon, with SR leukemia, in the assay with M14 melanoma and in the assay on SK-MEL-5 melanoma was > 100 µM throughout.

For `CC(=O)NNc1nc(C)c(C(/C=C/c2ccc([N+](=O)[O-])cc2)=N/NC(N)=O)s1`, the TGI with HCT-116 colon, with HCT-15 colon, with MALME-3M melanoma, in the assay with PC-3 prostate, with SF-295 CNS and in the assay on LOX IMVI melanoma was > 100 µM each time. Moreover, the TGI with HT29 colon, in the assay on SR leukemia, with M14 melanoma and in the assay with SK-MEL-5 melanoma was > 100 µM each time.

Regarding `C/C(=N/NC(=S)Nc1cccc(Cl)c1)c1ccccn1`, the TGI in the assay with HCT-116 colon was 12.2 µM; in the assay with HCT-15 colon, 16.1 µM; with MALME-3M melanoma, 10 µM; with PC-3 prostate it was 15.1 µM; in the assay with SF-295 CNS, 9.39 µM; in the assay with LOX IMVI melanoma, 9.49 µM. Moreover, the TGI in the assay with HT29 colon was 13.9 µM; in the assay on SR leukemia, 1.99 µM; in the assay with M14 melanoma, 3.82 µM; with SK-MEL-5 melanoma, 4 µM.
